Test results reported in paper PMC2782911 (Cancer, 2009).
Read-outs that look alike come from different tables or passages of the source.

Key:
human SLC5A8 [1] = target: T1, human SLC5A8 (Homo sapiens, UniProt Q8N695); test: Inhibition of [14C]nicotinate uptake via human SLC5A8 expressed in HRPE cells; format: cell-based
T1 sequence (Q8N695 1-610): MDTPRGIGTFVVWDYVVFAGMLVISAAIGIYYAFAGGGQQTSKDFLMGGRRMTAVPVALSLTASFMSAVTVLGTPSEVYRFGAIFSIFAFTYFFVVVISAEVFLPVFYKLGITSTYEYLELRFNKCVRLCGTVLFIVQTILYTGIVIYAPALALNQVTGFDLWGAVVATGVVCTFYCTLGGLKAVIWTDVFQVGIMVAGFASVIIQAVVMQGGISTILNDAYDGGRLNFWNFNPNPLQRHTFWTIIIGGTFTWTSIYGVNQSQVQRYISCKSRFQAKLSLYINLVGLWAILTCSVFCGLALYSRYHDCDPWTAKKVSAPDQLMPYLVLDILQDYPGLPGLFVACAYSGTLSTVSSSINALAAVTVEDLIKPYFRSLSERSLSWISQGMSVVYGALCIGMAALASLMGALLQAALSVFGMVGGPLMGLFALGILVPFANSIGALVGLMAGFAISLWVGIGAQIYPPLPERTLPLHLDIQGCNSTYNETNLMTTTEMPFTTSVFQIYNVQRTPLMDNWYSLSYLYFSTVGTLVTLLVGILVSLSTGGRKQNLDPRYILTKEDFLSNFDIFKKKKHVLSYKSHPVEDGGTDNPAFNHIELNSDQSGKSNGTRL

human SLC5A8 [2] = target: T1, human SLC5A8; test: Substrate-induced currents in X. laevis oocytes expressing human SLC5A8; format: cell-based; conditions: for inward currents in SLC5A8-expressing oocytes: 1 mM compound, in the presence of NaCl, not detectable in absence of Na+, -50 mV; for K0.5 (substrate concentration for half-maximal current): saturation kinetics of substrate-induced currents, human SLC5A8 oocytes
recombinant human HDAC1 = recombinant human HDAC1 (Homo sapiens, UniProt Q13547); test: Recombinant human HDAC1 activity assay; format: biochemical; conditions: for inhibition of HDAC1: 1 mM, recombinant human isoform
recombinant human HDAC3 = recombinant human HDAC3 (Homo sapiens, UniProt O15379); test: Recombinant human HDAC3 activity assay; format: biochemical; conditions: for inhibition of HDAC3: 1 mM, recombinant human isoform
recombinant human HDAC2 = recombinant human HDAC2 (Homo sapiens, UniProt Q92769); test: Recombinant human HDAC2 activity assay; format: biochemical; conditions: 1 mM, recombinant human isoform
recombinant human HDAC6 = target: T2, recombinant human HDAC6 (Homo sapiens, UniProt Q9UBN7); test: Recombinant human HDAC6 activity assay; format: biochemical; conditions: 1 mM, recombinant human isoform
T2 sequence (Q9UBN7 1-1215): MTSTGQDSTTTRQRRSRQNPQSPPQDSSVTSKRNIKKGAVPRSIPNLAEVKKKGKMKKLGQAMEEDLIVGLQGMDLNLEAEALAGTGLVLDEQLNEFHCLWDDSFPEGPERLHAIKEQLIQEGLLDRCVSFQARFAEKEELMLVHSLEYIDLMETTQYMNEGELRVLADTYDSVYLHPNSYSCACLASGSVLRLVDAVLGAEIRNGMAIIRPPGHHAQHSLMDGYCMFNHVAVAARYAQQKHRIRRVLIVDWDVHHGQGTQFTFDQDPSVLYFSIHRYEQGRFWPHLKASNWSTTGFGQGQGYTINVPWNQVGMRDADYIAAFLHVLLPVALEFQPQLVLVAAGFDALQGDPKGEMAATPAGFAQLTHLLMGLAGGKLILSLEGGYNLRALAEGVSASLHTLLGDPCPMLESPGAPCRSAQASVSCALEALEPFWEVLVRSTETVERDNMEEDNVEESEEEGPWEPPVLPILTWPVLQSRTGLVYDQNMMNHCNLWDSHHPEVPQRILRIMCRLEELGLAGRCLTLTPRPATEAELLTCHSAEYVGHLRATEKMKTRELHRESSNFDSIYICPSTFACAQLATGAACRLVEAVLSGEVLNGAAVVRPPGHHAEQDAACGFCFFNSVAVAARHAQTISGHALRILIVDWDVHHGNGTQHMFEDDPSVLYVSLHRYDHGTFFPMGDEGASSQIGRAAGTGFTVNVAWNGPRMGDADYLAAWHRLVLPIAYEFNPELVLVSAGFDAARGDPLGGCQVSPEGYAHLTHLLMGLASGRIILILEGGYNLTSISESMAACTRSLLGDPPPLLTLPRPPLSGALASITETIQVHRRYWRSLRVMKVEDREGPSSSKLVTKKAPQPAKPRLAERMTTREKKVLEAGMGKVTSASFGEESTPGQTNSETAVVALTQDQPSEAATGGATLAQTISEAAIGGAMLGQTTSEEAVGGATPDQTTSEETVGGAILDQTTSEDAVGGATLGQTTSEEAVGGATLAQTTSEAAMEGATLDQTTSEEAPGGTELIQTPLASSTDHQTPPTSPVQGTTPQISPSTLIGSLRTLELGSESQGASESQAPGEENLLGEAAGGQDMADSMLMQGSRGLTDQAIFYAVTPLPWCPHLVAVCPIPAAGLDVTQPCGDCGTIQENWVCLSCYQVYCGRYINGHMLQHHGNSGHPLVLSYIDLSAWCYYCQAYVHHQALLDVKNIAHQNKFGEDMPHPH

recombinant human HDAC5 = recombinant human HDAC5 (Homo sapiens, UniProt Q9UQL6); test: Recombinant human HDAC5 activity assay; format: biochemical; conditions: 1 mM, recombinant human isoform
recombinant human HDAC8 = target: T3, recombinant human HDAC8 (Homo sapiens, UniProt Q9BY41); test: Recombinant human HDAC8 activity assay; format: biochemical; conditions: 1 mM, recombinant human isoform
T3 sequence (Q9BY41 1-377): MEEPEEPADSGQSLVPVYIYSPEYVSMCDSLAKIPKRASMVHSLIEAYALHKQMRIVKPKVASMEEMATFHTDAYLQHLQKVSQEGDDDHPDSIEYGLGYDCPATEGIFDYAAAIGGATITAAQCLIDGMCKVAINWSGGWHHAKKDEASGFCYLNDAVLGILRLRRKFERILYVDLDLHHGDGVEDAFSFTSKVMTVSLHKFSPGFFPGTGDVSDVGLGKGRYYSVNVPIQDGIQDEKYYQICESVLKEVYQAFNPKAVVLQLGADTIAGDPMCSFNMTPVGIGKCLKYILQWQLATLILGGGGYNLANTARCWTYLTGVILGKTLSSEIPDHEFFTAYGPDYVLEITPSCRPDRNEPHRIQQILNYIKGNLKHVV

recombinant human HDAC9 = recombinant human HDAC9 (Homo sapiens, UniProt Q9UKV0); test: Recombinant human HDAC9 activity assay; format: biochemical; conditions: 1 mM, recombinant human isoform
MCF7 cells [3] = test: Colony formation assay in MCF7 cells; conditions: vector-transfected MCF7 cells, increasing concentrations, two weeks
MCF7 cells [4] = test: Apoptosis of MCF7 cells by FACS analysis
HDACs in MCF7 cells = test: HDAC activity in lysates of MCF7 cells cultured with compound; conditions: vector-transfected MCF7 cells cultured with 1 mM compound
rat Slc5a8 = target: T4, rat Slc5a8 (Rattus norvegicus, UniProt D3Z9E5); test: Inhibition of [14C]nicotinate uptake via rat Slc5a8 expressed in HRPE cells; format: cell-based; conditions: read-out: inhibition of nicotinate uptake
T4 sequence (D3Z9E5 1-611): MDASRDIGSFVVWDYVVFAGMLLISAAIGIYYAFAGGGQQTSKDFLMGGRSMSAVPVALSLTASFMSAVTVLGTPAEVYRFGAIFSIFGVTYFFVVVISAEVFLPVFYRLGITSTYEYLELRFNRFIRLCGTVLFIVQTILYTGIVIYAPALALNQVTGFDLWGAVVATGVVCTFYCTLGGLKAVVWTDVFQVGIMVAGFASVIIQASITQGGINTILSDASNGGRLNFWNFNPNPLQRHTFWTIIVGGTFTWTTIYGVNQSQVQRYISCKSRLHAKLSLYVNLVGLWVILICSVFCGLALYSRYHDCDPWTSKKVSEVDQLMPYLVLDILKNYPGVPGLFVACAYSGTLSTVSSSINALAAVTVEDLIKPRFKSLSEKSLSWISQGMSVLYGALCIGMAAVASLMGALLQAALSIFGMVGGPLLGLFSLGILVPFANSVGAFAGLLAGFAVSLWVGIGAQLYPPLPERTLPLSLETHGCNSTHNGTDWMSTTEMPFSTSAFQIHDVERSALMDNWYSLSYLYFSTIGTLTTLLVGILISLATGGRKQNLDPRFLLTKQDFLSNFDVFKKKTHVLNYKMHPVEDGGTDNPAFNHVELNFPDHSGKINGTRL

mouse Slc5a8 = target: T5, mouse Slc5a8 (Mus musculus, UniProt Q8BYF6); test: Inhibition of [14C]nicotinate uptake via mouse Slc5a8 expressed in HRPE cells; format: cell-based; conditions: read-out: inhibition of nicotinate uptake
T5 sequence (Q8BYF6 1-611): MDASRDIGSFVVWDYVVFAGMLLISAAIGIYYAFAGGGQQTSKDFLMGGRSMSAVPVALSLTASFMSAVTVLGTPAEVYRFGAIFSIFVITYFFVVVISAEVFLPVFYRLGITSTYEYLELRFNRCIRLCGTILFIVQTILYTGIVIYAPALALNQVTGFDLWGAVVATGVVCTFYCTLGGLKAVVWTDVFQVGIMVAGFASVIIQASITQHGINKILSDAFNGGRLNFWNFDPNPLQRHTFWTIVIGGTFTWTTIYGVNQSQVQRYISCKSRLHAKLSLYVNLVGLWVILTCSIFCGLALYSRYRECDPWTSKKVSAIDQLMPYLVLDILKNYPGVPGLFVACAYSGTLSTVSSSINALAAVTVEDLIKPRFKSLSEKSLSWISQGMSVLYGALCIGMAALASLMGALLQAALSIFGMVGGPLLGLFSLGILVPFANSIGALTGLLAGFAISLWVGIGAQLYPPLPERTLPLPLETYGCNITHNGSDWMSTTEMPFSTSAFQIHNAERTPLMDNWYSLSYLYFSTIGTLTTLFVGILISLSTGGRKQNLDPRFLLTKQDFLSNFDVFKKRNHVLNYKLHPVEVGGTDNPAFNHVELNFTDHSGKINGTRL

[5] = Na+-activation kinetics of 3-bromopyruvate-induced currents
[6] = MCF7 cells ectopically expressing SLC5A8, 1 mM
[7] = vector-transfected MCF7 cells, 1 mM

Chain of recombinant human HDAC3 (O15379 whole entry, canonical isoform): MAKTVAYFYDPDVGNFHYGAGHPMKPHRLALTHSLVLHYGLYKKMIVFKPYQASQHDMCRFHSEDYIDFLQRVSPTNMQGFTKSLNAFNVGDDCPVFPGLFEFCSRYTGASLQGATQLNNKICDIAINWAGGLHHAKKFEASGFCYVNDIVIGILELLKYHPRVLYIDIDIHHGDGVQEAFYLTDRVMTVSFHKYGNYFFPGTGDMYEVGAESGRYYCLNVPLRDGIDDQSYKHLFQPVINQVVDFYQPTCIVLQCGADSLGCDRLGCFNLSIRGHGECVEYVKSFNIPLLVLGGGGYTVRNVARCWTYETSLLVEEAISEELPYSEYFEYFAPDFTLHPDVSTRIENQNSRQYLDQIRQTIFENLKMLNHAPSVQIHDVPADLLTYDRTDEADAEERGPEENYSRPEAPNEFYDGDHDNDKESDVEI
Chain of recombinant human HDAC3 (Q9Y618 395-489 partner limits assumed): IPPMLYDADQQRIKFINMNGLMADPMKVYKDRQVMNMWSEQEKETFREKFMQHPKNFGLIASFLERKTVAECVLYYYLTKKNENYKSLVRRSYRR
Chain of recombinant human HDAC1 (Q13547 whole entry, canonical isoform): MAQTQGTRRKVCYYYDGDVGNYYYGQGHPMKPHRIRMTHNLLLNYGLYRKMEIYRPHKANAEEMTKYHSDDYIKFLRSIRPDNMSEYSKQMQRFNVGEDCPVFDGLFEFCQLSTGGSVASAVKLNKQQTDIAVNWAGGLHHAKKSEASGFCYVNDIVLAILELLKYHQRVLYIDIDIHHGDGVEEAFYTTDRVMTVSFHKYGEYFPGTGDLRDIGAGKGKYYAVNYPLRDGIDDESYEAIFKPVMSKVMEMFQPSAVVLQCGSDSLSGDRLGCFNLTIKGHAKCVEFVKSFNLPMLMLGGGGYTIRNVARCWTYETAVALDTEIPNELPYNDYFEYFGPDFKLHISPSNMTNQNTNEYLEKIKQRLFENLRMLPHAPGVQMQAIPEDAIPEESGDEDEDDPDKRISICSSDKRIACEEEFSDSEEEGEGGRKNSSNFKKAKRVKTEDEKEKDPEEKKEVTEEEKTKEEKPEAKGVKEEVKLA
Chain of recombinant human HDAC2 (Q92769 whole entry, canonical isoform): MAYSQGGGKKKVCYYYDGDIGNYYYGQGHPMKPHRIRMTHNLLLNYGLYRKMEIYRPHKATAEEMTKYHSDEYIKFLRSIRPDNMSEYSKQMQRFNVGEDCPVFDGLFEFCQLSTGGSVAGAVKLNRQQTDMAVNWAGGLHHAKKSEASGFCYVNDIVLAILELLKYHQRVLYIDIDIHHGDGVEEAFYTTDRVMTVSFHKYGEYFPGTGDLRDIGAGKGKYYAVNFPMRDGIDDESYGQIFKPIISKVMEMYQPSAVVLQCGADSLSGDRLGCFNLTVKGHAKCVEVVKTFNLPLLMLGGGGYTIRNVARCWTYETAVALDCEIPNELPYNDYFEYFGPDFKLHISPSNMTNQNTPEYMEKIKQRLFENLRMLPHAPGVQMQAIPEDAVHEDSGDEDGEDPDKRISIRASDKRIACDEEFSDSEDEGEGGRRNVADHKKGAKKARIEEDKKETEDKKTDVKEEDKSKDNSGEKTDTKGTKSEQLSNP
Chain of recombinant human HDAC5 (Q9UQL6 whole entry, canonical isoform): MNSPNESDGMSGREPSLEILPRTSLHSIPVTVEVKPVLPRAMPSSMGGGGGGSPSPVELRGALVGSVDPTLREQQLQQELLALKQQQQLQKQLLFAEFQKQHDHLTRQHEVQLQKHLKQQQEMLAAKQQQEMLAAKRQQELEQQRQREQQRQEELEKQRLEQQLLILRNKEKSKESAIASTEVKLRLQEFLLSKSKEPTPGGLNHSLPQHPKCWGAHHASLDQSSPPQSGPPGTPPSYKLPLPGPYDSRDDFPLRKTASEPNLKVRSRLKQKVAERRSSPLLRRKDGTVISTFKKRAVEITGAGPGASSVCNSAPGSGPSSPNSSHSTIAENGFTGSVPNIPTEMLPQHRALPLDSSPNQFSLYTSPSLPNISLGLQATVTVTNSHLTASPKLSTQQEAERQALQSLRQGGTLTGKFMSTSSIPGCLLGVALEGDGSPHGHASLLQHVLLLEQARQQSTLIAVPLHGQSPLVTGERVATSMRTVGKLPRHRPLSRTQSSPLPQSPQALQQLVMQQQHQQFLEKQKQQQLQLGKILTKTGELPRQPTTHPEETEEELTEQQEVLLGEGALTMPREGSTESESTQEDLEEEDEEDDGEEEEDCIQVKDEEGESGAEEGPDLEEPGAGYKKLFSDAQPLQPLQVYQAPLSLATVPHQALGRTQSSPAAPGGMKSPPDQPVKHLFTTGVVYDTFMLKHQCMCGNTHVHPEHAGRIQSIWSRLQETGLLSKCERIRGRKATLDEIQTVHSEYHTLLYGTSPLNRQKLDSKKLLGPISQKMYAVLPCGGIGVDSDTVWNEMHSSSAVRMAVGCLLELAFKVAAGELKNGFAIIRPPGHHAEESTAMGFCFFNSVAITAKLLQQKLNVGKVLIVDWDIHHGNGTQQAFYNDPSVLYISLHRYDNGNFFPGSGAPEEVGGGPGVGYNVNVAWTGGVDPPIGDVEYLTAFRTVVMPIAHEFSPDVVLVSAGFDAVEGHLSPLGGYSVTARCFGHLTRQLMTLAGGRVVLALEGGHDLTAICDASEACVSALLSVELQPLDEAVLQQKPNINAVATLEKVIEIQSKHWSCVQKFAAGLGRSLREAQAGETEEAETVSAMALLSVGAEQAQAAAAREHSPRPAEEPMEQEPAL
Chain of recombinant human HDAC9 (Q9UKV0 whole entry, canonical isoform): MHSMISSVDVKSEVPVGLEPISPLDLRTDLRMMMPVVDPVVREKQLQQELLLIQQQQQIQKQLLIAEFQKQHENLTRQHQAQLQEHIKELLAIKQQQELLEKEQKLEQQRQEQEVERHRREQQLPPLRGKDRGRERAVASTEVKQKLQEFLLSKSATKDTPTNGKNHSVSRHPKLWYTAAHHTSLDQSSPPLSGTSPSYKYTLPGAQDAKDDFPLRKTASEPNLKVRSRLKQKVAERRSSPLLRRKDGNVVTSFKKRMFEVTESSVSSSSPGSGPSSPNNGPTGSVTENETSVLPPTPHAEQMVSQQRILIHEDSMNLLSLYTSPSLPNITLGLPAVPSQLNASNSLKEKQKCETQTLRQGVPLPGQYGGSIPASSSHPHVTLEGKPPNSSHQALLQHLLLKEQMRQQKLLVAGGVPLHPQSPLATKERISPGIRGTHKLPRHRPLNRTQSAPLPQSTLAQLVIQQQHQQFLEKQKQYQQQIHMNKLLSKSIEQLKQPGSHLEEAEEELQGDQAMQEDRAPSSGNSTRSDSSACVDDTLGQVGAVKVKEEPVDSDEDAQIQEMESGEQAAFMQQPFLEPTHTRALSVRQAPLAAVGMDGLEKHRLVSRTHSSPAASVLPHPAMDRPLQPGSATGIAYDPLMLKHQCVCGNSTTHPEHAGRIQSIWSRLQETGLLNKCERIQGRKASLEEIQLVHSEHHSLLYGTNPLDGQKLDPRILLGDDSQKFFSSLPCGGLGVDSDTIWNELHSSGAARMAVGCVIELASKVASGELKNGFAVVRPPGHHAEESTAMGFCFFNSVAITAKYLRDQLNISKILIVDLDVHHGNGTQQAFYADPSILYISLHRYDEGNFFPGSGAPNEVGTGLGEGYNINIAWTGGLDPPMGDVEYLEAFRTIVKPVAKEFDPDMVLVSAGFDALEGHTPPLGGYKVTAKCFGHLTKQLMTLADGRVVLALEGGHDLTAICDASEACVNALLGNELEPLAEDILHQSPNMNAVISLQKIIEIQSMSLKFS

O=C(O)C(=O)CBr [3-bromopyruvate]
IC50 (human SLC5A8 [1]; read-out: IC50 for the inhibition of human SLC5A8 (nicotinate uptake), human SLC5A8 in HRPE cells, [14C]nicotinate 15 μM, 15 min, means ± S.E.): 32 ± 9 µM | inward currents in SLC5A8-expressing oocytes (human SLC5A8 [2]): induced inward currents | current induced relative to current induced by pyruvate (human SLC5A8 [2]; 1 mM, pyruvate-induced current taken as 100%, four oocytes): approximately 50% | Hill coefficient for the activation of transport by Na+ (human SLC5A8 [2]; [5]): 1.4 ± 0.2 | K0.5 value for Na+ to activate the transport process (human SLC5A8 [2]; [5]): 32 ± 4 mM | transportable substrate or blocker of SLC5A8 (human SLC5A8 [2]; conclusion from Na+-dependent inward currents at 1 mM): transportable substrate | K0.5 (substrate concentration for half-maximal current) (human SLC5A8 [2]): 495 ± 25 µM | inhibition of HDAC1 (recombinant human HDAC1): marked inhibition | inhibition of HDAC3 (recombinant human HDAC3): marked inhibition | inhibition of HDAC2 (recombinant human HDAC2): inhibited to a lesser, but significant, extent | inhibition of HDAC6 (recombinant human HDAC6): inhibited to a lesser, but significant, extent | effect on HDAC5 (recombinant human HDAC5): no effect | effect on HDAC8 (recombinant human HDAC8): no effect | effect on HDAC9 (recombinant human HDAC9): no effect | colony formation (cell viability) (MCF7 cells [3]): affected only minimally | apoptosis (FACS) (MCF7 cells [4]; [6]): induced marked apoptosis | apoptosis (FACS), added effect after siRNA silencing (MCF7 cells [4]; MCF7 cells with HDAC1 or HDAC3 silenced by siRNA, then 3-bromopyruvate 1 mM 48 h): did not have any added effect | apoptosis (FACS) after siRNA silencing (MCF7 cells [4]; MCF7 cells with HDAC2 silenced by siRNA, 3-bromopyruvate 1 mM 48 h): did not cause apoptosis | apoptosis (FACS) (MCF7 cells [4]; [7]): not affected | change in HDAC activity (HDACs in MCF7 cells): no change in HDAC activity

CC(=O)C(=O)O [pyruvate]
inhibition at 1000 µM (rat Slc5a8): 60% | inhibition at 1000 µM (mouse Slc5a8): 75% | IC50 (human SLC5A8 [1]): 652 ± 139 µM | inhibition at 1000 µM (human SLC5A8 [1]; HRPE, read-out: inhibition of nicotinate uptake): 55% | inward currents in SLC5A8-expressing oocytes (human SLC5A8 [2]): induced inward currents | substrate-induced current (human SLC5A8 [2]; 1 mM, four oocytes, NaCl buffer): 215 ± 45 nA | K0.5 (substrate concentration for half-maximal current) (human SLC5A8 [2]): 312 ± 16 µM | IC50 (recombinant human HDAC1): 30 ± 14 µM | inhibition of HDAC1 (recombinant human HDAC1): inhibited HDAC1 and HDAC3 preferentially | IC50 (recombinant human HDAC3): 40 ± 11 µM | inhibition of HDAC3 (recombinant human HDAC3): inhibited HDAC1 and HDAC3 preferentially | colony formation (cell viability) (MCF7 cells [3]): affected only minimally | apoptosis (FACS) (MCF7 cells [4]; [6]): induced marked apoptosis | apoptosis (FACS) (MCF7 cells [4]; [7]): not affected | change in HDAC activity (HDACs in MCF7 cells): no change in HDAC activity
